Assay results taken from the COVID Moonshot data (paper PMC11187573), “Identification of SARS-CoV-2 Mpro inhibitors through deep reinforcement learning for de novo drug design and computational chemistry approaches” (RSC Medicinal Chemistry, 2024).

Experiments:
[1] = biological target: SARS-CoV-2 Main Protease (SARS-CoV-2) (UniProt P0DTD1)
[2] = biological target: SARS-CoV-2 Main Protease (SARS-CoV-2) (UniProt P0DTD1); remark: listed apart in the source

| SMILES | IC50 [1] [nM] | inhibition ([2]; 20.0 µM) [%] | inhibition ([2]; 50.0 µM) [%] | inhibition ([1]; 50.0 µM) [%] | IC50 [2] [nM] | inhibition ([1]; 20.0 µM) [%] |
| --- | --- | --- | --- | --- | --- | --- |
| O=[N+]([O-])c1cnc(Sc2nnc(-c3ccco3)n2-c2ccc(OCc3ccccc3)cc2)s1 | 660 | 31.8 | 94.4 |  |  |  |
| COc1ccccc1OCCN1C(=O)C(=O)c2cc(Br)cc(C)c21 |  | -2.64 | -0.707 | 48.1 |  |  |
| N#Cc1ccc(CN2C(=O)C(=O)c3cccc(Br)c32)c(F)c1 | 14300 | -1.68 | -0.391 | 72.1 |  |  |
| CCOC(=O)c1cc(-c2ccccc2)sc1NC(=O)Cc1csc(-c2ccccc2)n1 | 2690 | 91.8 | 97.9 |  |  |  |
| O=C(Nc1ccc([N+](=O)[O-])cc1Cl)c1cc(Cl)ccc1O |  |  | -22.8 | 21 |  |  |
| CC(C)Cn1cc(NC(=O)NC2=NN(c3ccccc3)CC2)c2ccccc2c1=O |  | 1.37 | 5.45 | -5.97 |  |  |
| O=C(Cc1cc(Cl)cc(OC2CC(=O)N2)c1)Nc1cncc2ccccc12 (stereo not drawn) | 157 |  |  |  | 203 |  |
| C=CC(=O)N(c1ccc(C(C)OC)cc1)C(C(=O)Nc1cccc(CC)c1)c1cccnc1 (stereo not drawn) |  | 36.6 | 63.7 |  |  | 4.44 |
| CN1CCN(C(=O)Cc2c[nH]c3ncc(C(=O)NCCc4c[nH]c5ccc(F)cc45)cc23)CC1 |  | -1.5 | 7.57 | 8.74 |  |  |
| Nc1ncc(S(=O)(=O)c2ccc(Cl)cc2)c(N)n1 |  |  | -22.1 | 0 |  |  |
| N#Cc1cnn(C(=O)c2cccs2)c1C1CC1 | 363 | 33.2 | 69 |  |  |  |
| CCc1cccc(CC)c1NC(=O)CN1C(=O)C(=O)c2cc(OC)ccc21 |  | -6.58 | -0.841 | 13 |  |  |
| CCN(Cc1cccc(-c2ccncc2)c1)C(=O)Cn1nnc2ccccc21 |  | 3.37 | 15.6 | 0 |  |  |
| COc1cc(Cl)cc(CC(=O)Nc2cnccc2C)c1 | 43600 | 24.6 | 48.3 |  |  |  |
| C=CC(=O)N(C1CCOC1=O)C(C(=O)NC(C)(C)C)c1cccnc1 (stereo not drawn) |  | -5.08 | -7.63 | 0 |  |  |
| O=C(Cc1cccc(Cl)c1)Nc1cccnc1 |  | 24.1 | 40.9 | 52.4 |  |  |
| Cc1cccc(NC(=O)CN2C(=O)C(=O)c3ccccc32)c1 | 42400 | -4.74 | -1.42 | 53.7 |  |  |
| Cc1cnc2c(-c3ccc4[nH]ncc4c3)c(-c3ccc(F)cc3)nn2c1 |  | -1.68 | -1 | 34.7 |  |  |
| O=C(Nc1cccc(C(F)(F)F)c1)Nc1ccccc1Sc1ncc([N+](=O)[O-])s1 | 219 | 55.9 | 76.3 |  |  |  |
| COc1ccccc1OCC(C)NC(=O)c1cc(=O)[nH]c2ccc(F)cc12 (stereo not drawn) |  | 42 | 59.3 | 40.1 |  |  |
| COc1cccc(CNC(=O)N2CCN(C(=O)N3CCCCC3)CC2)c1 |  | -3.31 | -0.332 | 0 |  |  |
| C=CC(=O)N1CC(NCc2c[nH]c3ccc(C#N)cc23)C1 |  | -2.15 | 15.4 | 0 |  |  |
| O=[N+]([O-])c1cnc(Sc2nnc(-c3ccc(Cl)cc3)o2)s1 | 319 | 28.9 | 71.2 |  |  |  |
| O=c1oc(Nc2ccccc2)nc2ccccc12 | 363 | 68.6 | 90.4 |  |  |  |
| O=S(=O)(Cc1ccccc1F)c1oc(-c2ccc(F)cc2)nc1S(=O)(=O)c1ccccc1 | 99.2 | 49 | 95.9 |  |  |  |

| SMILES | IC50 [1] [nM] | inhibition ([2]; 20.0 µM) [%] | inhibition ([2]; 50.0 µM) [%] | inhibition ([1]; 50.0 µM) [%] | IC50 [2] [nM] | inhibition ([1]; 20.0 µM) [%] |
| --- | --- | --- | --- | --- | --- | --- |
| N#C/C(C(=O)Nc1ccc(F)cc1)=C(/O)c1ccc(Cl)cc1 | 234 |  | 22.2 | 100 |  |  |
| COC(=O)c1c(C)nn(C(=O)c2cccs2)c1-c1snnc1C | 522 | 35 | 77 |  |  |  |
| O=S(=O)(Cc1noc(C2CC2)n1)Nc1cccnc1 |  | -2.48 | -1.33 | 9.43 |  |  |
| Cc1nc[nH]c1CN1CCN(Cc2cccc(Cl)c2)C1=O |  | -0.267 | 2.39 | 0 |  |  |
| CC(C)(C)c1ccc(-c2nnc(Sc3cnc([N+](=O)[O-])s3)o2)cc1 | 164 | 8.3 | 69.9 |  | 4160 |  |
| C/C(O)=C(\C#N)C(=O)Nc1ccc(C(F)(F)F)cc1 |  | -2.89 | -3 | 22.2 |  |  |
| N#Cc1ccc(CN2CCC(C3CCNC3)CC2)cc1 (stereo not drawn) | 1360 | 97.1 | 98.9 |  |  |  |
| C=CC(=O)N(C(C)COc1cccc(F)c1)C(C(=O)NC(C)(C)C)c1cccnc1 (stereo not drawn) |  | -1.52 | -5.54 | 0 |  |  |
| Cc1cn2c(-c3cccnc3)c(-c3ccc(F)cc3)nc2s1 |  | -2.02 | 1.34 | 31.5 |  |  |
| CC(C)Cn1cc(NC(=O)NCCCN2CCC(C)CC2)c2ccccc2c1=O | 98200 | -1.82 | -1.61 |  |  |  |
| c1ccc(-c2cc(Sc3nnc(-c4cccs4)o3)n3ncnc3n2)cc1 | 152 | 47.1 | 96.7 |  |  |  |
| CC(=O)Oc1ccccc1C(=O)Nc1ncc([N+](=O)[O-])s1 |  |  | -8.72 | 0 |  |  |
| C=CC(=O)NCC(=O)N(Cc1ccccc1)C[C@H](O)c1ccccc1 (stereo in doubt) |  | -0.281 | 0.986 | 0 |  |  |
| O=C(CCl)N1CCN(Cc2cnc(-c3ccccc3)nc2)CC1 |  | 6.18 | 15.7 | 0 |  |  |
| Cc1cccc(COC(=O)c2cccc3c2NC(=O)C3=O)c1 | 17300 | -1.1 | 0.0384 | 83.7 |  |  |
| O=C(Oc1cncc(Cl)c1)c1cccc2[nH]ccc12 |  | 99.8 | 100 | 100 |  |  |
| NCCn1cc(C(=O)N2CC3(CCC3)c3cc(Br)ccc32)cn1 |  | -2.84 | 7.52 | 0 |  |  |
| CCOc1ccccc1OC1CCN(C(=O)c2c(C)c(=O)[nH]c3ccccc23)C1 (stereo not drawn) |  | 0.342 | 4.57 | 0 |  |  |
| CS(=O)(=O)c1ccc(N2CCNCC2)cc1 | 83800 | -2.52 | 5.05 |  |  |  |
| CC(C)c1nc(CN(C)C(=O)N[C@H](C(=O)N[C@@H](Cc2ccccc2)C[C@H](O)[C@H](Cc2ccccc2)NC(=O)OCc2cncs2)C(C)C)cs1 (stereo in doubt) |  | 2.31 | 6.72 |  |  | 0 |
| O=C(Cc1ccsc1)N1CCN(c2cc(-c3cccs3)n[nH]2)CC1 | 78200 | 13.1 | 42.2 |  |  |  |
| O=C1Nc2cc(N3CCCC3)ccc2C1=O |  | 7.46 | 37.3 | 0 |  |  |
| CC(=O)N1CCN(CC(=O)Nc2cncc3ccccc23)CC1 | 72500 |  |  | 42.4 | 71700 |  |
| CCOC(=O)c1ccc(NC(=O)CC2SC(=O)N(c3ccccc3)C2=O)cc1 (stereo not drawn) | 635 | 79 | 80.7 |  |  |  |
| CNC(=O)c1ccc(CS(=O)(=O)NCC(F)(F)c2ccc(F)cc2F)cc1 |  | 6.87 | 9.79 | 0 |  |  |

| SMILES | IC50 [1] [nM] | inhibition ([2]; 20.0 µM) [%] | inhibition ([2]; 50.0 µM) [%] | inhibition ([1]; 50.0 µM) [%] | IC50 [2] [nM] | inhibition ([1]; 20.0 µM) [%] |
| --- | --- | --- | --- | --- | --- | --- |
| N#Cc1cccc(CN2C(=O)C(=O)c3cccc(Br)c32)c1 | 17 | -5.42 | -2.38 | 91.2 |  |  |
| C=CC(=O)N(c1ccc2c(c1)C=CCCC2)C(C(=O)NC(C)(C)C)c1cccnc1 (stereo not drawn) |  | 12.4 | 25.9 | 0 |  |  |
| C=CC(=O)N1CCN(S(C)(=O)=O)CC1c1ccccc1 (stereo not drawn) |  | -0.438 | 2.89 | 0 |  |  |
| O=C(Cc1cc(Cl)cc2c1OCC2)Nc1cncc2ccccc12 | 492 |  |  | 78.3 | 1450 |  |
| O=C1CC(Oc2cc(Cl)cc(N(CCC3CCCCC3)C(=O)Nc3cncc4ccccc34)c2)N1 (stereo not drawn) | 1580 |  |  |  | 105 |  |
| Cc1ccccc1NC(=O)CC1SC(=O)N(c2ccccc2)C1=O (stereo not drawn) | 658 | 92.6 | 94.9 |  |  |  |
| Cc1ncccc1NC(=O)Cc1cccc(Cl)c1 |  | -4.59 | -3.9 | 0 |  |  |
| Cc1ccc(S(=O)(=O)N2CCC(NC(=O)N(C)Cc3cc(C)on3)CC2)cc1 |  | -1.1 | 2.6 | 0 |  |  |
| Cc1cc(C)c(C#N)c(Sc2ncnc3c2nnn3Cc2ccccc2)n1 | 255 | 79 | 97.7 |  |  |  |
| CC(NC(=O)CCl)c1cc(F)cc(Cl)c1 (stereo not drawn) | 21000 | 40.6 | 74.5 | 100 |  |  |
| O=S(=O)(Cc1nc(-c2ccncc2)no1)Nc1ccc(N2CCCCC2)cc1 |  | 3.34 | 2.66 | 0 |  |  |
| O=C(NCc1ccc2c(c1)OCO2)c1nc(S(=O)(=O)Cc2ccccc2)ncc1Cl | 509 | 98.5 | 99.8 |  |  |  |
| COc1ccccc1OCCNC(=O)c1cc(=O)[nH]c2cccc(C)c12 | 2600 | 91.8 | 96.4 | 89.7 |  |  |
| O=C(CCl)N1CCN(S(=O)(=O)c2ccc(Cc3cccc4ccccc34)cc2)CC1 | 15200 | 20.6 | 29.9 | 89 |  |  |
| O=C(Cc1ccc(Cl)c(Cl)c1)Nc1cncc2ccccc12 | 132 |  |  |  | 261 |  |
| C[N+]1=C2C=C(N/C=C/c3ccc(O)cc3)C(=O)c3[nH]cc(c32)CC1 |  |  |  | 8.91 |  |  |
| O=C(Nc1cc(=O)[nH]c2ccccc12)C1CCOc2ccc(Cl)cc21 (stereo not drawn) | 48000 |  |  |  |  |  |
| O=C(Cn1nnc2ccccc21)N(Cc1cccc(Cl)c1)c1ccc(N2CCCCC2)cc1 | 6020 |  |  |  |  |  |
| Cc1ccncc1NC(=O)Cc1cc(Cl)cc(NC2CCCC2O)c1 (stereo not drawn) | 38900 |  |  | 61.5 |  |  |
| Cc1ccncc1NC(=O)Cc1cc(Cl)cc(CNS(C)(=O)=O)c1 | 32200 |  |  |  |  |  |
| O=C(Cc1cncc2ccccc12)Nc1cccc(Cl)c1 | 7200 |  |  |  |  |  |
| O=C(COc1cccc(Cl)c1)Nc1cncc2ccccc12 | 6020 |  |  |  |  |  |
| CC(C)[C@H](NC(=O)OCc1ccccc1)C(=O)NC(C=O)Cc1ccccc1 (stereo in doubt) |  |  |  | 0 |  |  |
| COc1ccc2c(NC(=O)Cc3cccc(Cl)c3)[nH]nc2c1 | 52000 |  |  |  |  |  |
| O=C1C(=O)N(Cc2ccccc2)c2ccc([N+](=O)[O-])cc21 | 26900 |  |  |  |  |  |
